From paper PMC12508156, “Non-canonical dihydrolipoyl transacetylase promotes chemotherapy resistance via mitochondrial tetrahydrofolate signaling” (Nature Communications, 2025)
Values joined by “and” are separate entries in the source; they are usually repeats but may differ in a detail not shown here. Equal values may be shown once.

What was measured:
[1] = tested on: H1299 cells; test: Apoptotic cell death (annexin V/PI staining); format: cell-based, human; details: cisplatin 5 μg/ml, 48 h, n=1-3: biological replicates
[2] = tested on: KB-3-1cisR xenograft tumors; test: IHC of KB-3-1cisR xenograft tumors (Ac-K44 MTHFD2, MT-CO2, DLAT, Ki-67); format: in vivo, athymic nu/nu mice; set-up: key: IHC intensity score 0 to 3+; details: KB-3-1cisR xenograft tumors (Figure 8J)
Source text: Formalin-fixed and paraffin-embedded tumor tissue specimens from HNSCC and NSCLC patients were obtained from the […] Cancer Tissue and Pathology Shared Resources. The Institutional Review Board (IRB) of Emory University approved using human specimens (IRB00003208 - HNSCC, IRB00098377 - NSCLC). Clinical samples were collected with informed consent according to the Health Insurance Portability and Accountability Act. Patients' clinical information was obtained through the […] Technology Applications Shared Resource. Tumors from HNSCC or NSCLC patients who received chemotherapy-containing regimens were used. Immunohistochemistry (IHC) staining of DLAT, acetyl-[…] MTHFD2, MT-CO2, and Ki-67 was performed based on the established protocol. Antigen retrieval was conducted in Tris-EDTA (pH 9.0) for acetyl-[…] MTHFD2 and MT-CO2 and sodium citrate (pH 6.0) for the remaining antigens. […] Assessment of positive DLAT, MT-CO2, and acetyl-[…] MTHFD2 staining intensity within tumor cells was performed using a scoring system ranging from 0 to 3+ based on IHC signal intensity. Mice were subcutaneously injected into the flank with 1 × 10^6 KB-3-1^cisR cells with or without DLAT knockdown. […] Tumors were collected at the experimental endpoint, and tumor proliferation was assessed using Ki-67 IHC staining. The localization, penetration, and efficacy of DMp39 were monitored by assessing the acetyl-[…] levels in tumors and fluorescence imaging analysis using an IVIS imaging system. Drug-induced organ toxicities, including splenomegaly, liver damage, and kidney injury, were monitored by assessing spleen index, alanine transaminase activity, and cystatin C levels in plasma.

[3] = tested on: H1299 cells; test: Cell viability (CellTiter-Glo); format: cell-based, human; set-up: unit not given here; details: 48 h, n=1-3: biological replicates
Procedure: (§1) Cell viability was determined using the CellTiter-Glo Luminescent Cell Viability Assay. […] Subsequently, the cells were cultured in complete medium for an additional 10 days, and the resulting colonies were visualized by staining with crystal violet and quantified using ImageJ software. For cell cycle analysis, cells fixed with 70% ethanol were stained with RNase A (100 µg/mL) and propidium iodide (50 μg/ml) for 30 min at 37 °C, and DNA content distribution was measured using flow cytometry (BD Symphony A3) and analyzed with FlowJo software (v10.9). Apoptotic cell death was assessed via FITC-conjugated annexin V and propidium iodide staining.

[4] = tested on: A549cisR cells; test: Cell viability (CellTiter-Glo); format: cell-based, human; set-up: unit not given here; details: 48 h, n=1-3: biological replicates
Procedure: as §1

[5] = tested on: KB-3-1cisR cells; test: Cell viability (CellTiter-Glo); format: cell-based, human; set-up: unit not given here; details: 48 h, n=1-3: biological replicates
Procedure: as §1

[6] = tested on: PCI-37B cells; test: Cell viability (CellTiter-Glo); format: cell-based, human; set-up: unit not given here; details: 48 h, n=1-3: biological replicates
Procedure: as §1

[7] = tested on: A549cisR cells; test: Colony formation assay; format: cell-based, human; details: 2 μg/ml cisplatin 24 h, then 10 days, normalised, n=1-3: biological replicates
Procedure: as §1

[8] = tested on: KB-3-1cisR cells; test: Colony formation assay; format: cell-based, human; details: 5 μg/ml cisplatin 24 h, then 10 days, normalised, n=1-3: biological replicates
Procedure: as §1

[9] = tested on: A549cisR and KB-3-1cisR cells; test: Cell cycle distribution (propidium iodide, flow cytometry); format: cell-based, human
Procedure: as §1
1cisR cells were transduced with DLAT-targeting shRNA and treated with sublethal doses of […]
antioxidant N-acetylcysteine (NAC). (a) Western blot analysis of p21 waf1/cip1 expression as a marker of cellular senescence. (b) Western blot analysis of LC3-I/II and p62 as markers of autophagy. (c) Cell cycle distribution was assessed by flow cytometry following propidium iodide staining. (d) Intracellular ROS levels were measured using the H2DCFDA probe. Error bars represent SD and are from 3 independent biological replicates for (c,d). P values were determined by one-way ANOVA.
(1 picture or pasted object on this page, not shown here)

[10] = A549cisR cells, pLKO.1, replicate 1
[11] = A549cisR cells, pLKO.1, replicate 2
[12] = A549cisR cells, pLKO.1, replicate 3
[13] = A549cisR cells, shDLAT, replicate 1
[14] = A549cisR cells, shDLAT, replicate 2
[15] = A549cisR cells, shDLAT, replicate 3
[16] = KB-3-1cisR cells, pLKO.1, replicate 1
[17] = KB-3-1cisR cells, pLKO.1, replicate 2
[18] = KB-3-1cisR cells, pLKO.1, replicate 3
[19] = KB-3-1cisR cells, shDLAT, replicate 1
[20] = KB-3-1cisR cells, shDLAT, replicate 2
[21] = KB-3-1cisR cells, shDLAT, replicate 3

## N.N.[Cl][Pt][Cl] [cisplatin]
[1]; H1299 pLKO.1
  Apoptotic death: 12.41
[1]; H1299 shDLAT #1
  Apoptotic death: 23.45 and 22.74
[1]; H1299 shDLAT #2
  Apoptotic death: 18.43
[2]; n=1
  Ac-K44 (IHC score): 2
  DLAT (IHC score): 2
  MT-CO2 (IHC score): 3
[2]; n=2
  Ac-K44 (IHC score): 3
  DLAT (IHC score): 3
  MT-CO2 (IHC score): 3
[2]; n=3
  Ac-K44 (IHC score): 2
  DLAT (IHC score): 2
  MT-CO2 (IHC score): 3
[2]; n=4
  Ac-K44 (IHC score): 2
  DLAT (IHC score): 3
  MT-CO2 (IHC score): 3
[2]; n=5
  Ac-K44 (IHC score): 2
  DLAT (IHC score): 3
  MT-CO2 (IHC score): 1
[2]; n=6
  Ac-K44 (IHC score): 2
  DLAT (IHC score): 2
  MT-CO2 (IHC score): 3
[3]; H1299, DLAT #1 shRNA knockdown
  cisplatin IC50: 4.334 and 4.088 and 4.359
[3]; H1299, DLAT #2 shRNA knockdown
  cisplatin IC50: 9.212 and 9.08 and 8.246
[3]; H1299, pLKO.1 control
  cisplatin IC50: 13.89 and 13.96 and 12.36
[4]; DLAT #1 shRNA knockdown
  cisplatin IC50: 3.049 and 3.093 and 3.477
[4]; DLAT #2 shRNA knockdown
  cisplatin IC50: 3.68 and 3.342 and 3.385
[4]; pLKO.1 control
  cisplatin IC50: 10.93 and 10.63 and 11.6
[5]; DLAT #1 shRNA knockdown
  cisplatin IC50: 5.222 and 4.723 and 5.403
[5]; DLAT #2 shRNA knockdown
  cisplatin IC50: 8.292 and 8.491 and 9.402
[5]; pLKO.1 control
  cisplatin IC50: 35.64 and 37.47 and 39.03
[6]; DLAT #1 shRNA knockdown
  cisplatin IC50: 0.6706 and 0.655 and 0.6977
[6]; DLAT #2 shRNA knockdown
  cisplatin IC50: 1.089 and 1.15 and 1.31
[6]; pLKO.1 control
  cisplatin IC50: 2.128 and 2.267 and 2.42
[7]; A549cisR pLKO.1
  Colony formation assay: 1.111 and 0.9965 and 1.059
[7]; A549cisR shDLAT #1
  Colony formation assay: 0.545 and 0.5035 and 0.4723
[7]; A549cisR shDLAT #2
  Colony formation assay: 0.5398 and 0.5242 and 0.4931
[8]; KB-3-1cisR pLKO.1
  Colony formation assay: 0.9446 and 0.763 and 0.8564
[8]; KB-3-1cisR shDLAT #1
  Colony formation assay: 0.1843 and 0.1505 and 0.2102
[8]; KB-3-1cisR shDLAT #2
  Colony formation assay: 0.2154 and 0.1946 and 0.1246
[9]; [10]
  Cell cycle, G1 phase: 34.1
  Cell cycle, G2 phase: 36.2
  Cell cycle, S phase: 29.7
[9]; [11]
  Cell cycle, G1 phase: 33.1
  Cell cycle, G2 phase: 39.3
[9]; [12]
  Cell cycle, G1 phase: 33.1
  Cell cycle, G2 phase: 38.8
  Cell cycle, S phase: 28.1
[9]; [13]
  Cell cycle, G1 phase: 39.2
  Cell cycle, G2 phase: 37.2
  Cell cycle, S phase: 23.6
[9]; [14]
  Cell cycle, G1 phase: 39.5
  Cell cycle, G2 phase: 39.6
  Cell cycle, S phase: 20.9
[9]; [15]
  Cell cycle, G1 phase: 39.5
  Cell cycle, G2 phase: 38.6
  Cell cycle, S phase: 21.9
[9]; [16]
  Cell cycle, G1 phase: 23.3
  Cell cycle, G2 phase: 58.9
  Cell cycle, S phase: 17.8
[9]; [17]
  Cell cycle, G1 phase: 23.7
  Cell cycle, G2 phase: 58.1
  Cell cycle, S phase: 18.2
[9]; [18]
  Cell cycle, G1 phase: 24.3
  Cell cycle, G2 phase: 57.9
  Cell cycle, S phase: 17.8
[9]; [19]
  Cell cycle, G1 phase: 18.3
  Cell cycle, G2 phase: 63.6
  Cell cycle, S phase: 18.1
[9]; [20]
  Cell cycle, G1 phase: 17.6
  Cell cycle, G2 phase: 63.5
  Cell cycle, S phase: 18.9
[9]; [21]
  Cell cycle, G1 phase: 17
  Cell cycle, S phase: 19.8
